molecular target: human PDE10A (UniProt Q9Y233); assay: Measurement of PDE activity (recombinant enzyme, HTRF cAMP kit); format: biochemical; conditions: Table 1, substrate 20 nM for PDE10, 60 minutes at 29 C, read-out: IC50
Procedure: The recombinant PDE proteins are used in in vitro enzymatic reaction for measurement of PDE activity. These recombinant proteins, including PDE10A (human, rat and mouse PDE10) and isoforms of PDEs 1, 3, 4, and 5, were purchased from commercial vendor BPS Bioscience. The enzymatic activity of PDEs was determined by cAMP measurement kit from CisBio (IBA) using HTRF technology.
The PDE enzymatic reaction was carried out in assay buffer (20 mM Tris-HCl pH7.5, 10 mM MgCl2, 0.1% bovine serum albumin) containing enzyme and substrate. The PDE enzymes concentration ranged from 10 pM-250 pM, depending on each enzyme's specific activity. The substrate cyclic nucleotide (cAMP or cGMP) concentration used in the assay was 20 nM for PDE10, and 100 nM for other PDEs. The inhibitory effect of compound was determined by incubating various concentration of inhibitor in the enzymatic assay. Typically, compound was serial diluted in DMSO then further diluted in assay buffer. Next, the compound at varying concentration was mixed with PDE enzyme. The reaction was initiated by addition of cyclic nucleotide substrate, and incubated for 60 minutes at 29 C. The reaction was stopped by addition of lysis buffer from assay kit. The cAMP-d2 and anti-cAMP cryptate in the lysis buffer detected the level of cAMP left from the PDE hydrolysis reaction. The PDE activity is reversely correlated with the amount of cAMP left in the reaction and can be converted to the percent activity of an uninhibited control (100%). Thus, IC50 value of inhibitor can be obtained by plotting inhibitor concentration against PDE activity at that concentration.

Sequence of human PDE10A (Q9Y233 290-1055 limits assumed): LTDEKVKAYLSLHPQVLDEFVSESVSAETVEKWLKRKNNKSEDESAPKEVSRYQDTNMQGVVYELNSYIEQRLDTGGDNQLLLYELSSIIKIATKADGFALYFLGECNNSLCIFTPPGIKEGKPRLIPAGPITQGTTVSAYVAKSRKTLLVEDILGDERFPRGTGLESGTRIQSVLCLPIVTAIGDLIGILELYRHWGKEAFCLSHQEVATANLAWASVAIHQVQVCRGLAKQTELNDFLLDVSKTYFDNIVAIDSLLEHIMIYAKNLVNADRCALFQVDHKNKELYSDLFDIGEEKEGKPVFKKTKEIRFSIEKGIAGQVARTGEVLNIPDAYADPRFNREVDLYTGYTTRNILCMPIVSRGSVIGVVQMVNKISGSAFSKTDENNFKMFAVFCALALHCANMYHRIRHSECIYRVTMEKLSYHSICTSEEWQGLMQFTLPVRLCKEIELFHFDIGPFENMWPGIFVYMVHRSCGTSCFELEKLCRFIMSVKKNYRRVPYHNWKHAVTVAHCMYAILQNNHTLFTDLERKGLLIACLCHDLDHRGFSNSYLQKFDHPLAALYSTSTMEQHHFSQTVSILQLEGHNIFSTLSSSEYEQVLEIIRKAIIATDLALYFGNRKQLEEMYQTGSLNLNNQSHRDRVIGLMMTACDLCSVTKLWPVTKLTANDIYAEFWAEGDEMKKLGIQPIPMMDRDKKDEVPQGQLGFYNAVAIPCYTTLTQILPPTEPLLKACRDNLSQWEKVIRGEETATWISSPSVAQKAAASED

For `O=c1c2c(NC3COC3)cccc2ccn1C1CC1c1ccc2ccccc2n1` (single isomer, unassigned; (+)) [Example 235a, (+) anti 8-(oxetan-3-ylamino)-2-(2-(quinolin-2-yl)cyclopropyl)isoquinolin-1(2H)-one], which IC50 is on record?
The IC50 was less than 0.1 µM.

Which IC50 does the source give for `O=c1c2c(-c3cccnc3)cccc2ccn1C1CC1c1ccc2ccccc2n1` (single isomer, unassigned; (+)) [Example 239a, (+) anti 8-(pyridin-3-yl)-2-(2-(quinolin-2-yl)cyclopropyl)isoquinolin-1(2H)-one] here?
Its IC50 is 0.1 to 0.2 µM.

`O=c1c2c(-c3ccncc3)cccc2ccn1C1CC1c1ccc2ccccc2n1` (single isomer, unassigned; (-)) [Example 222b, (−) 8-(pyridin-4-yl)-2-(2-(quinolin-2-yl)cyclopropyl)isoquinolin-1(2H)-one] was tested. Which IC50 did it give?
The IC50 was less than 0.1 µM.

How did the IC50 turn out when `O=c1c2c(-c3cccnc3)cccc2ccn1C1CC1c1ccc2ccccc2n1` (single isomer, unassigned; (-)) [Example 239b, (−) anti 8-(pyridin-3-yl)-2-(2-(quinolin-2-yl)cyclopropyl)isoquinolin-1(2H)-one] was run?
Its IC50 is less than 0.1 µM.

How did the IC50 turn out when `O=c1c2c(-c3ccncc3)csc2c(-c2ccncc2)nn1CCc1ccc2ccccc2n1` [Example 1, 3,7-Di(pyridin-4-yl)-5-[2-(quinolin-2-yl)ethyl]thieno[2,3-d]pyridazin-4(5H)-one] was run?
The IC50 was less than 0.1 µM.

How did the IC50 turn out when `O=c1c2ccsc2c(-c2ccncc2)nn1CCc1ccc2ccccc2n1` [Example 2, 7-(Pyridin-4-yl)-5-[2-(quinolin-2-yl)ethyl]thieno[2,3-d]pyridazin-4(5H)-one] was run?
The IC50 was less than 0.1 µM.

`O=c1c2c(-c3ccncc3)csc2cnn1CCc1ccc2ccccc2n1` [Example 3, 3-(Pyridin-4-yl)-5-[2-(quinolin-2-yl)ethyl]thieno[2,3-d]pyridazin-4(5H)-one] was tested. Which IC50 did it give?
Its IC50 is less than 0.1 µM.

For `O=c1c2c(-c3ccncc3)csc2c(-c2ccncc2)nn1CCc1ccccn1` [Example 5, 3,7-Di(pyridin-4-yl)-5-[2-(pyridin-2-yl)ethyl]thieno[2,3-d]pyridazin-4(5H)-one], which IC50 is on record?
The IC50 was less than 0.1 µM.

With `Cc1ccc(-c2csc3cnn(CCc4ccc5ccccc5n4)c(=O)c23)cc1` [Example 7, 3-(4-methylphenyl)-5-[2-(quinolin-2-yl)ethyl]thieno[2,3-d]pyridazin-4(5H)-one] as the molecule, how does the IC50 read?
Its IC50 is 0.2 to 0.5 µM.

With `CC(C)c1ccc(-c2csc3cnn(CCc4ccc5ccccc5n4)c(=O)c23)cc1` [Example 8, 3-[4-(propan-2-yl)phenyl]-5-[2-(quinolin-2-yl)ethyl]thieno[2,3-d]pyridazin-4(5H)-one] as the molecule, how does the IC50 read?
Its IC50 is less than 0.1 µM.

How did the IC50 turn out when `N#Cc1ccc(-c2csc3cnn(CCc4ccc5ccccc5n4)c(=O)c23)cc1` [Example 10, 4-{4-oxo-5-[2-(quinolin-2-yl)ethyl]-4,5-dihydrothieno[2,3-d]pyridazin-3-yl}benzonitrile] was run?
The IC50 was less than 0.1 µM.

For `COc1ccc(-c2csc3cnn(CCc4ccc5ccccc5n4)c(=O)c23)cc1` [Example 11, 3-(4-methoxyphenyl)-5-[2-(quinolin-2-yl)ethyl]thieno[2,3-d]pyridazin-4(5H)-one], which IC50 is on record?
Its IC50 is 0.1 to 0.2 µM.

For `O=c1c2c(-c3ccc(F)cc3)csc2cnn1CCc1ccc2ccccc2n1` [Example 12, 3-(4-fluorophenyl)-5-[2-(quinolin-2-yl)ethyl]thieno[2,3-d]pyridazin-4(5H)-one], which IC50 is on record?
Its IC50 is less than 0.1 µM.

`N#CCc1ccc(-c2csc3cnn(CCc4ccc5ccccc5n4)c(=O)c23)cc1` [Example 15, (4-{4-oxo-5-[2-(quinolin-2-yl)ethyl]-4,5-dihydrothieno[2,3-d]pyridazin-3-yl}phenyl)acetonitrile] was tested. Which IC50 did it give?
The IC50 was 0.2 to 0.5 µM.

`O=c1c2c(-c3ccc(O)cc3)csc2cnn1CCc1ccc2ccccc2n1` [Example 16, 3-(4-hydroxyphenyl)-5-[2-(quinolin-2-yl)ethyl]thieno[2,3-d]pyridazin-4(5H)-one] was tested. Which IC50 did it give?
Its IC50 is less than 0.1 µM.

Which IC50 does the source give for `O=c1c2c(-c3ccccc3Cl)csc2cnn1CCc1ccc2ccccc2n1` [Example 17, 3-(2-chlorophenyl)-5-[2-(quinolin-2-yl)ethyl]thieno[2,3-d]pyridazin-4(5H)-one] here?
Its IC50 is 0.1 to 0.2 µM.

How did the IC50 turn out when `Cc1ccccc1-c1csc2cnn(CCc3ccc4ccccc4n3)c(=O)c12` [Example 18, 3-(2-methylphenyl)-5-[2-(quinolin-2-yl)ethyl]thieno[2,3-d]pyridazin-4(5H)-one] was run?
The IC50 was 0.2 to 0.5 µM.

With `O=c1c2c(-c3ccccc3F)csc2cnn1CCc1ccc2ccccc2n1` [Example 20, 3-(2-fluorophenyl)-5-[2-(quinolin-2-yl)ethyl]thieno[2,3-d]pyridazin-4(5H)-one] as the molecule, how does the IC50 read?
The IC50 was less than 0.1 µM.

How did the IC50 turn out when `O=c1c2c(-c3ccccc3O)csc2cnn1CCc1ccc2ccccc2n1` [Example 23, 3-(2-hydroxyphenyl)-5-[2-(quinolin-2-yl)ethyl]thieno[2,3-d]pyridazin-4(5H)-one] was run?
The IC50 was less than 0.1 µM.

For `COc1cccc(-c2csc3cnn(CCc4ccc5ccccc5n4)c(=O)c23)c1` [Example 26, 3-(3-methoxyphenyl)-5-[2-(quinolin-2-yl)ethyl]thieno[2,3-d]pyridazin-4(5H)-one], which IC50 is on record?
Its IC50 is 0.2 to 0.5 µM.

`N#Cc1cccc(-c2csc3cnn(CCc4ccc5ccccc5n4)c(=O)c23)c1` [Example 29, 3-[4-Oxo-5-(2-quinolin-2-yl-ethyl)-4,5-dihydro-thieno[2,3-d]pyridazin-3-yl}-benzonitrile] was tested. Which IC50 did it give?
The IC50 was less than 0.1 µM.

How did the IC50 turn out when `O=c1c2c(-c3cccc(F)c3)csc2cnn1CCc1ccc2ccccc2n1` [Example 30, 3-(3-fluorophenyl)-5-[2-(quinolin-2-yl)ethyl]thieno[2,3-d]pyridazin-4(5H)-one] was run?
The IC50 was 0.1 to 0.2 µM.

`O=c1c2c(-c3cccc(O)c3)csc2cnn1CCc1ccc2ccccc2n1` [Example 31, 3-(3-hydroxyphenyl)-5-[2-(quinolin-2-yl)ethyl]thieno[2,3-d]pyridazin-4(5H)-one] was tested. Which IC50 did it give?
Its IC50 is 0.1 to 0.2 µM.

Which IC50 does the source give for `CN(C)C(=O)c1cccc(-c2csc3cnn(CCc4ccc5ccccc5n4)c(=O)c23)c1` [Example 32, N,N-dimethyl-3-{4-oxo-5-[2-(quinolin-2-yl)ethyl]-4,5-dihydrothieno[2,3-d]pyridazin-3-yl}benzamide] here?
The IC50 was 0.2 to 0.5 µM.

Which IC50 does the source give for `O=c1c2c(-c3cccs3)csc2cnn1CCc1ccc2ccccc2n1` [Example 34, 5-[2-(quinolin-2-yl)ethyl]-3-(thiophen-2-yl)thieno[2,3-d]pyridazin-4(5H)-one] here?
Its IC50 is 0.1 to 0.2 µM.

Which IC50 does the source give for `O=c1c2c(-c3ccc4cc[nH]c4c3)csc2cnn1CCc1ccc2ccccc2n1` [Example 36, 3-(1H-indol-6-yl)-5-[2-(quinolin-2-yl)ethyl]thieno[2,3-d]pyridazin-4(5H)-one] here?
Its IC50 is less than 0.1 µM.

Which IC50 does the source give for `O=c1c2c(-c3cncnc3)csc2cnn1CCc1ccc2ccccc2n1` [Example 37, 3-(pyrimidin-5-yl)-5-[2-(quinolin-2-yl)ethyl]thieno[2,3-d]pyridazin-4(5H)-one] here?
The IC50 was less than 0.1 µM.

Which IC50 does the source give for `COc1ncccc1-c1csc2cnn(CCc3ccc4ccccc4n3)c(=O)c12` [Example 38, 3-(2-methoxypyridin-3-yl)-5-[2-(quinolin-2-yl)ethyl]thieno[2,3-d]pyridazin-4(5H)-one] here?
The IC50 was 0.2 to 0.5 µM.

How did the IC50 turn out when `O=c1c2c(-c3cccnc3)csc2cnn1CCc1ccc2ccccc2n1` [Example 39, 3-(pyridin-3-yl)-5-[2-(quinolin-2-yl)ethyl]thieno[2,3-d]pyridazin-4(5H)-one] was run?
The IC50 was less than 0.1 µM.

`O=c1c2c(-c3ccoc3)csc2cnn1CCc1ccc2ccccc2n1` [Example 41, 3-(furan-3-yl)-5-[2-(quinolin-2-yl)ethyl]thieno[2,3-d]pyridazin-4(5H)-one] was tested. Which IC50 did it give?
Its IC50 is less than 0.1 µM.
